Data from publication PMC8466754, “Esterase-Sensitive Prodrugs of a Potent Bisubstrate Inhibitor of Nicotinamide N-Methyltransferase (NNMT) Display Cellular Activity” (Biomolecules, 2021).

Assays:
[1] = test system: HSC-2 human oral cancer cell line; assay: MTT cell viability assay, HSC-2; assay type: cell-based
Description: (§1) HSC-2 human oral cancer cell line, T24 human bladder cancer cell line, and A549 human lung cancer line were cultured in DMEM/F12 medium and supplemented with 10% fetal bovine serum and 50 μg/mL gentamicin at 37 °C in a humidified 5% CO2 incubator. For each compound tested, powder was dissolved in DMSO at 100 mM concentration. This stock solution was then diluted in culture medium to final concentration values ranging between 1 µM and 100 µM. For each sample, DMSO was kept constant at 0.1% final concentration. The day before starting treatment, cells were seeded in 96-well plates, at a density of 2000 cells/well. Cells were allowed to attach overnight and then incubated with compounds at different concentrations, or with DMSO only, for 24, 48, and 72 h. All experiments were performed in triplicate.
(§2) Cell proliferation was determined using a colorimetric assay with 3-(4,5-dimethylthiazol-2-yl)-2,5-diphenyl tetrazolium bromide (MTT). The MTT assay measures the conversion of MTT to insoluble formazan by dehydrogenase enzymes of the intact mitochondria of living cells. Cell proliferation was evaluated by measuring the conversion of the tetrazolium salt MTT to formazan crystals upon treatment with compounds or DMSO only for 24, 48, and 72 h. Briefly, cells were incubated for 2 h at 37 °C with 100 µL fresh culture medium containing 5 µL of MTT reagent (5 mg/mL in PBS). The medium was removed and 200 µL isopropanol were added. The amount of formazan crystals formed correlated directly with the number of viable cells. The reaction product was quantified by measuring the absorbance at 540 nm using a plate reader. Experiments were repeated three times. Results were expressed as a percentage of the control (the control equals 100% and corresponds to the absorbance value of each sample at time zero) and presented as mean values ± standard deviation of three independent experiments performed in triplicate.

[2] = test system: T24 human bladder cancer cell line; assay: MTT cell viability assay, T24; assay type: cell-based
Description: as §1, §2

[3] = test system: A549 human lung cancer line; assay: MTT cell viability assay, A549; assay type: cell-based
Description: as §1, §2

NNMT = biological target: T1, NNMT (Homo sapiens, UniProt P40261); assay: 1-Methylnicotinamide (MNA) quantification in A549 cells (LC-MS); settings: A549 lung carcinoma cells; 0.1–100 µM; 24-h treatment (Figure 4)
T1 sequence (P40261 1-264): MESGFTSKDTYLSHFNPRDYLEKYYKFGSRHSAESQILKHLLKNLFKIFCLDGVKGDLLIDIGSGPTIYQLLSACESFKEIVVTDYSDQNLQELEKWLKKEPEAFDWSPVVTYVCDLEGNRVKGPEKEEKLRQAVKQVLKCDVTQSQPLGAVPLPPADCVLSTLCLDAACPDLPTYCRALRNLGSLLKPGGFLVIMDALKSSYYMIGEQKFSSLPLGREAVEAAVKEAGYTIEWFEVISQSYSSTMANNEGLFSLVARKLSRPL
Description: Human lung adenocarcinoma line (A549, ATCC, Manassas, VA, USA) was cultured according to the provider’s indications and seeded in 6-well format. […] After incubation, effluent samples were taken and frozen (−80 °C) for further MNA measurement. Cells also were collected, centrifuged (2 × 500 G/5 min.), and frozen both for the measurement of intracellular MNA and for BCA protein assay.
The quantification of 1-methylnicotinamide (MNA), nicotinamide (NA), nicotinic acid (NicA), 1-methyl-2-pyridone-5-carboxamide (Met-2Pyr), and 1-methyl-4-pyridone-5-carboxamide (Met-4Pyr) was performed by applying ultra-high pressure liquid chromatography coupled to tandem mass spectrometry (UPLC-MS) according to the methodology previously described with minor modifications [35]. A UPLC-MS system comprised of a UPLC Ultimate 3000 (Dionex, Thermo Scientific, Waltham, MA, USA) connected to a TSQ Quantum Ultra mass spectrometer (Thermo Scientific, Waltham, MA, USA) equipped with a heated electrospray ionization interface (HESI-II Probe, Waltham, MA, USA) was used. Chromatographic separation of analytes was carried out on an Aquasil C18 analytical column (4.6 mm × 150 mm, 5 mm; Thermo Scientific, Waltham, MA, USA) under isocratic elution using acetonitrile with 0.1% of formic acid (A) and 5 mM ammonium formate in water (B) as mobile phases delivered at the flow rate of 0.8 mL/min (A:B, 80:20, v/v). The cell pellet was resuspended in 60 µL of deionized water and 50 µL of suspension was transferred to a fresh test tube. An amount of 50 µL of effluent sample was used for the measurement of extracellular MNA. The internal standard (IS) containing MNA-d3 was added to each sample (5 µL) obtaining the final concentration of 500 ng/mL. After the sample mixing, the proteins were precipitated using 100 μL of acidified acetonitrile (0.1% of formic acid), and samples were mixed (10 min), cooled at 4 °C (15 min), and finally centrifuged (15,000× g, 15 min, 4 °C). A clear supernatant was transferred to a chromatographic vial and directly injected (5 µL) into UPLC-MS system. […] The concentration of MNA was calculated based on the calibration curve plotted for the analyte as the relationship between the peak area ratios of analyte/IS to the nominal concentration of the analyte. The concentration of analytes was normalized to milligram of proteins, which was assessed using a Pierce^TM BCA Protein Assay Kit (Thermo Fisher, Waltham, MA, USA) and a Synergy4 multiplate reader (BioTek, Winooski, VT, USA). […]
Using this assay, the levels of MNA produced by NNMT in an A549 lung carcinoma cell line can be quantified by means of a sensitive LC-MS method.

[4] = Ester stability assay in buffer (RP-HPLC); assay type: physicochemical; settings: for percentage of compound peak area present after 16 h of incubation, PBS: PBS buffer pH 7.4, 16 h; for percentage of compound peak area present after 16 h of incubation, PBS / percentage of compound peak area present after 16 h of incubation, Tris: room temperature, 1 mM compound; for percentage of compound peak area present after 16 h of incubation, Tris: Tris buffer pH 8.4, 16 h; for hydrolytic stability in buffer (in words): PBS pH 7.4 and Tris pH 8.4, over 16 h
Description: The prodrugs were evaluated for their stability in both PBS buffer at pH 7.4 and Tris buffer at pH 8.4. The compounds were dissolved in DMSO at a concentration of 40 mM and diluted with the respective buffer to a final concentration of 1 mM. Compounds were tested directly (t0) and subsequently every 2 h over a time period of 16 h by HPLC. Compounds were eluted from a Dr. Maisch ReproSil-Pur C18 column (4.6 × 250 mm, 10 μm particle size, Dr. Maisch, Ammerbuch-Entringen, Germany) with the following solvent system at a flow rate of 0.5 mL/min: solvent A, 0.1% trifluoroacetic acid in water/acetonitrile (95:5); solvent B, 0.1% trifluoroacetic acid in water/acetonitrile (5:95). Gradient elution was as follows: 100:0 (A/B) to 0:100 (A/B) over 8 min, 0:100 (A/B) for 1 min, then reversion back to 100:0 (A/B) over 1 min, 100:0 (A/B) for 2 min. The formation of the parent compound was evaluated and normalized by measuring the peak area at 214 nm and comparing it to the initial timepoint.
All prodrugs prepared were first tested for their inhibitory activity against NNMT using a biochemical enzymatic activity assay. […] Both these buffers and pHs have been used in the different biochemical and cellular assays described in this report. Compounds were dissolved in DMSO at a concentration of 40 mM and diluted with the respective buffer to a final concentration of 1 mM. Compound stability was then assessed by RP-HPLC directly (t0) and subsequently every 2 h over a time period of 16 h. […] Even for the rather labile methyl ester 12b, the TML group in 14b results in a decrease in hydrolysis of the methyl ester.

pig liver esterase (PLE) = assay: Esterase-mediated hydrolysis to the parent compound (RP-HPLC); assay type: in vitro ADME
Description: The conversion of the prodrugs to the parent compound by esterases was evaluated using pig liver esterase (PLE, 18 U/mg, Sigma-Aldrich, St. Louis, MO, USA) in PBS at pH 7.4. Compounds were dissolved in DMSO at 40 mM, diluted to a final concentration of 2 mM with PBS, and added to an equal volume of a 10 mg/mL solution of PLE in PBS (pH 7.4), resulting in final concentrations of 2.5% DMSO, 1 mM compound, and 5 mg/mL PLE. At different time-points 50 µL aliquots were taken, added to 100 µL acetonitrile to precipitate the proteins, and centrifuged for 5 min at 10,000 rpm. The supernatant was subsequently analyzed by HPLC as described in Section 2.2 above.
The next step was to establish whether compounds 12e and 14e are converted to the parent compound in the presence of an esterase.

CNc1ccc(C(N)=O)cn1 [Compound 6-MANA, 6-methylamino-nicotinamide, reference compound]
effect on cell viability (MTT) ([1]; 100 µM, 24, 48 and 72 h): no effect
effect on cell viability (MTT) ([1]; 1 and 10 µM, 24, 48 and 72 h): no effects
effect on cell viability (MTT) ([2]; 100 µM, 24, 48 and 72 h): no effect
effect on cell viability (MTT) ([2]; 1 and 10 µM, 24, 48 and 72 h): no effects
effect on cell viability (MTT) ([3]; 100 µM, 24, 48 and 72 h): no effect
effect on cell viability (MTT) ([3]; 1 and 10 µM, 24, 48 and 72 h): no effects
effect on cellular MNA levels (NNMT): high concentrations of both 6-MANA and GYZ-319 are required to substantially decrease the levels of MNA

COC(=O)[C@@H](N)CCN(C/C=C/c1ccc(C#N)cc1)C[C@H]1O[C@@H](n2cnc3c(N)ncnc32)[C@H](O)[C@@H]1O [Compound 12b, Methyl-(S)-2-amino-4-((((2R,3S,4R,5R)-5-(6-amino-9H-purin-9-yl)-3,4-dihydroxy-tetrahydrofuran-2-yl)methyl)((E)-3-(4-cyanophenyl)allyl)amino)butanoate]
percentage of compound peak area present after 16 h of incubation, PBS [4]: 36.97%
percentage of compound peak area present after 16 h of incubation, Tris [4]: 22.59%

CCOC(=O)[C@@H](N)CCN(C/C=C/c1ccc(C#N)cc1)C[C@H]1O[C@@H](n2cnc3c(N)ncnc32)[C@H](O)[C@@H]1O [Compound 12c, Ethyl-(S)-2-amino-4-((((2R,3S,4R,5R)-5-(6-amino-9H-purin-9-yl)-3,4-dihydroxytetrahydrofuran-2-yl)methyl)((E)-3-(4-cyanophenyl)allyl)amino)butanoate]
percentage of compound peak area present after 16 h of incubation, PBS [4]: 68.36%
percentage of compound peak area present after 16 h of incubation, Tris [4]: 54.84%

CCCOC(=O)[C@@H](N)CCN(C/C=C/c1ccc(C#N)cc1)C[C@H]1O[C@@H](n2cnc3c(N)ncnc32)[C@H](O)[C@@H]1O [Compound 12d, Propyl-(S)-2-amino-4-((((2R,3S,4R,5R)-5-(6-amino-9H-purin-9-yl)-3,4-dihydroxy-tetrahydrofuran-2-yl)methyl)((E)-3-(4-cyanophenyl)allyl)amino)butanoate]
percentage of compound peak area present after 16 h of incubation, PBS [4]: 71.96%
percentage of compound peak area present after 16 h of incubation, Tris [4]: 61.32%

CC(C)OC(=O)[C@@H](N)CCN(C/C=C/c1ccc(C#N)cc1)C[C@H]1O[C@@H](n2cnc3c(N)ncnc32)[C@H](O)[C@@H]1O [Compound 12e, Isopropyl-(S)-2-amino-4-((((2R,3S,4R,5R)-5-(6-amino-9H-purin-9-yl)-3,4-dihydroxytetrahydrofuran-2-yl)methyl)((E)-3-(4-cyanophenyl)allyl)amino)butanoate]
percentage of compound peak area present after 16 h of incubation, PBS [4]: 98.59%
hydrolytic stability in buffer (in words) [4]: most stable
percentage of compound peak area present after 16 h of incubation, Tris [4]: 93.70%
time to full conversion to the parent compound (pig liver esterase (PLE); 5 mg/mL PLE, PBS pH 7.4, 1 mM compound): ≤ 4 h
hydrolysis in the absence of PLE (pig liver esterase (PLE); PBS pH 7.4, without PLE): no hydrolysis was observed
effect on cell viability (MTT) ([1]; 100 µM, 24, 48 and 72 h): effect comparable to GYZ-319
effect on cell viability (MTT) ([1]; 1 and 10 µM, 24, 48 and 72 h): no effects
effect on cell viability (MTT) ([2]; 100 µM, 24, 48 and 72 h): effect comparable to GYZ-319
effect on cell viability (MTT) ([2]; 1 and 10 µM, 24, 48 and 72 h): no effects
effect on cell viability (MTT) ([3]; 100 µM, 24, 48 and 72 h): effect comparable to GYZ-319
effect on cell viability (MTT) ([3]; 1 and 10 µM, 24, 48 and 72 h): no effects
effect on cellular MNA levels (NNMT): clear and significant decrease in MNA levels

N#Cc1ccc(/C=C/CN(CC[C@H](N)C(=O)OCc2ccccc2)C[C@H]2O[C@@H](n3cnc4c(N)ncnc43)[C@H](O)[C@@H]2O)cc1 [Compound 12f, Benzyl-(S)-2-amino-4-((((2R,3S,4R,5R)-5-(6-amino-9H-purin-9-yl)-3,4-dihydroxy-tetrahydrofuran-2-yl)methyl)((E)-3-(4-cyanophenyl)allyl)amino)butanoate]
percentage of compound peak area present after 16 h of incubation, PBS [4]: 33.43%
hydrolytic stability in buffer (in words) [4]: least stable
percentage of compound peak area present after 16 h of incubation, Tris [4]: 21.60%

COC(=O)[C@H](CCN(C/C=C/c1ccc(C#N)cc1)C[C@H]1O[C@@H](n2cnc3c(N)ncnc32)[C@H](O)[C@@H]1O)NC(=O)CC(C)(C)c1c(C)cc(C)cc1OC(C)=O [Compound 14b, Methyl-(S)-2-(3-(2-acetoxy-4,6-dimethylphenyl)-3-methylbutanamido)-4-((((2R,3S,4R,5R)-5-(6-amino-9H-purin-9-yl)-3,4-dihydroxytetrahydrofuran-2-yl)methyl)((E)-3-(4-cyanophenyl)allyl)amino)butanoate]
percentage of compound peak area present after 16 h of incubation, PBS [4]: 88.08%
percentage of compound peak area present after 16 h of incubation, Tris [4]: 73.88%

CCOC(=O)[C@H](CCN(C/C=C/c1ccc(C#N)cc1)C[C@H]1O[C@@H](n2cnc3c(N)ncnc32)[C@H](O)[C@@H]1O)NC(=O)CC(C)(C)c1c(C)cc(C)cc1OC(C)=O [Compound 14c, Ethyl-(S)-2-(3-(2-acetoxy-4,6-dimethylphenyl)-3-methylbutanamido)-4-((((2R,3S,4R,5R)-5-(6-amino-9H-purin-9-yl)-3,4-dihydroxytetrahydrofuran-2-yl)methyl)((E)-3-(4-cyanophenyl)allyl)amino)butanoate]
percentage of compound peak area present after 16 h of incubation, PBS [4]: 90.44%
percentage of compound peak area present after 16 h of incubation, Tris [4]: 87.00%

CCCOC(=O)[C@H](CCN(C/C=C/c1ccc(C#N)cc1)C[C@H]1O[C@@H](n2cnc3c(N)ncnc32)[C@H](O)[C@@H]1O)NC(=O)CC(C)(C)c1c(C)cc(C)cc1OC(C)=O [Compound 14d, Propyl-(S)-2-(3-(2-acetoxy-4,6-dimethylphenyl)-3-methylbutanamido)-4-((((2R,3S,4R,5R)-5-(6-amino-9H-purin-9-yl)-3,4-dihydroxytetrahydrofuran-2-yl)methyl)((E)-3-(4-cyanophenyl)allyl)amino)butanoate]
percentage of compound peak area present after 16 h of incubation, PBS [4]: 90.30%
percentage of compound peak area present after 16 h of incubation, Tris [4]: 87.52%
